From article PMC8667816, “VTT-006, an anti-mitotic compound, binds to the Ndc80 complex and suppresses cancer cell growth in vitro” (Oncoscience, 2021)

Key:
[1] = target: T1, GFP-tagged Ndc80 complex (Ndc80-GFP) (Homo sapiens, UniProt O14777); test: single-molecule TIRF, residence time of Ndc80-GFP on microtubules; assay type: biochemical; settings: 10 μM VTT-006; Taxol-stabilized microtubules, BRB80 pH 6.9; Ndc80 6–10 pM
T1 construct: with Kinetochore protein Nuf2; Kinetochore protein Spc25; Kinetochore protein Spc24

[2] = target: T2, recombinant Ndc80 complex (Bonsai; Ndc80^bonsai) (Homo sapiens, UniProt O14777); test: fluorescence anisotropy of the compound (ex […] nm, em […] nm); assay type: binding; settings: PBS, 23 °C; 5 μM VTT-006, 1–15 μM protein; one site model with ligand depletion
T2 construct: Ndc80 bonsai: globular domains with shortened rod; plasmid from A. Musacchio; E. coli BL21(DE3), GST cut off with PreScission; with Kinetochore protein Nuf2; Kinetochore protein Spc25; Kinetochore protein Spc24
T2 sequence (O14777 1-286 limits assumed): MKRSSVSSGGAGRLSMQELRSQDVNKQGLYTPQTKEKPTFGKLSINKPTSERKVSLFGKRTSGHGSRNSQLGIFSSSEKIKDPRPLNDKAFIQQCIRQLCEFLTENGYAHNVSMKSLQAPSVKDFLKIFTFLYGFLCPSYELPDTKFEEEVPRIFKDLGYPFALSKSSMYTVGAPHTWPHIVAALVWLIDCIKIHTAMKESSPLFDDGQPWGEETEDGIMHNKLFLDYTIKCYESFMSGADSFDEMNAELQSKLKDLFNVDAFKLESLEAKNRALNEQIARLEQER
T2 sequence (Q9BZD4 1-169 partner limits assumed): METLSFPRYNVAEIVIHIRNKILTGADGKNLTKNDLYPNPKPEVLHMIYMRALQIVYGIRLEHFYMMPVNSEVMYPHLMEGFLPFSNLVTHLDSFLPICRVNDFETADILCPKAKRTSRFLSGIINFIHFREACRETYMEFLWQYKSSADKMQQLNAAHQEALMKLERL
T2 sequence (Q9HBM1 118-224 partner limits assumed): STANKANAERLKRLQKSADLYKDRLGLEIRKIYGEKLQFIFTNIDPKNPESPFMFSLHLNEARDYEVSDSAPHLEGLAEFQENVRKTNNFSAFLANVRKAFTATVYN
T2 sequence (Q8NBT2 122-197 partner limits assumed): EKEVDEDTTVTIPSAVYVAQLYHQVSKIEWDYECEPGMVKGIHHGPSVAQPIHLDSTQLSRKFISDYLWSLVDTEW

T1 sequence (O14777 whole entry): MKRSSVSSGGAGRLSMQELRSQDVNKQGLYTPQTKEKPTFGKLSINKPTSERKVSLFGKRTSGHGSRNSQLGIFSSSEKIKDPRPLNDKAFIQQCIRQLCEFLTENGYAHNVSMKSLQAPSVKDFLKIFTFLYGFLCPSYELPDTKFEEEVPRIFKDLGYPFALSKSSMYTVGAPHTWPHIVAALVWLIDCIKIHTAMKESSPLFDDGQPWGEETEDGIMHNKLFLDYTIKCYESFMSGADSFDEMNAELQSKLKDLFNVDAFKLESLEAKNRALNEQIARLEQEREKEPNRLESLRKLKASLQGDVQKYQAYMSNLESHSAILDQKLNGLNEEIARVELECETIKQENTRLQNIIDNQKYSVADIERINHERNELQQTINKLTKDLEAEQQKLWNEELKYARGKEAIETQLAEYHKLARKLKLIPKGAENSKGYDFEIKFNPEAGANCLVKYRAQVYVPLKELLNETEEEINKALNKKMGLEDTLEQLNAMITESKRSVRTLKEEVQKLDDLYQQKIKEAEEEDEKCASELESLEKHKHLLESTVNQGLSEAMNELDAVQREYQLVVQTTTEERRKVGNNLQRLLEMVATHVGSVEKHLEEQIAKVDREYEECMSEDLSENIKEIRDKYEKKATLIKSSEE
T1 sequence (Q9BZD4 whole entry partner): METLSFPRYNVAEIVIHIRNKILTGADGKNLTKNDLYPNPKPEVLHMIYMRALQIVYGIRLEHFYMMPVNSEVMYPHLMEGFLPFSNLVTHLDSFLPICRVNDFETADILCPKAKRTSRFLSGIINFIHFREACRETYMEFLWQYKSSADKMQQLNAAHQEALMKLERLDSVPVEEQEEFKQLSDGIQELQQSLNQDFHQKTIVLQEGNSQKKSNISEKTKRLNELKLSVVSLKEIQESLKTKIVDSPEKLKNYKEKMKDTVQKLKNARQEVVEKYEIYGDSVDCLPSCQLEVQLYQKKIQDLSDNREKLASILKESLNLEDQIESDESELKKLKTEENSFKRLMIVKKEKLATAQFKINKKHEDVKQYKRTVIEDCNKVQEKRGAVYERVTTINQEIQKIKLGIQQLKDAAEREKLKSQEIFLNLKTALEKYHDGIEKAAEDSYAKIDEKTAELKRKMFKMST
T1 sequence (Q8NBT2 whole entry partner): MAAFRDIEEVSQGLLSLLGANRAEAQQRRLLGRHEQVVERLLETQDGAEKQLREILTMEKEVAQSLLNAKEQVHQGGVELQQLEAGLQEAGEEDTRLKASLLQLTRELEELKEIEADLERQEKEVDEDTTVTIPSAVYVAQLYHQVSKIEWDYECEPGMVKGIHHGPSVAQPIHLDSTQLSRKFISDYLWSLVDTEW
T1 sequence (Q9HBM1 whole entry partner): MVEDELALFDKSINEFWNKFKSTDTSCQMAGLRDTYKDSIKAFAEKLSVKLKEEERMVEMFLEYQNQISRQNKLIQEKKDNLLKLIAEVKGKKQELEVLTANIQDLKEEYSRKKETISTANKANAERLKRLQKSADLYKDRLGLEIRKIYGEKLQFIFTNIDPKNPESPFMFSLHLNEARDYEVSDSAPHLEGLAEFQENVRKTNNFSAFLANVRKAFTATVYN

Kd [2]: 2.07 ± 2.84 µM
Structure (SMILES): CC#CC(=O)N1CCc2c([nH]c3ccccc23)C1c1ccc(OC)c(C)c1 (stereo not drawn) [VTT-006, 2-(2-butynoyl)-1-(4-methoxy-3-methylphenyl)-2,3,4,9-tetrahydro-1H-beta-carboline]
koff [1]: residence time of Ndc80-GFP on microtubules was significantly shorter in the presence of VTT-006
